What was measured:
blackgrass [1] = assay: Test B pre/postemergence blackgrass; assay type: in vivo, Alopecurus myosuroides
How it was run: (§1)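 Response is a visual 0-to-10 score relative to untreated plants, where 0 means no effect and 10 means complete control, taken twelve to sixteen days after application. Treatments went onto soil at planting and onto foliage of 1- to 4-leaf plants, using a surfactant-containing non-phytotoxic solvent.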

giant foxtail = assay: Test B pre/postemergence giant foxtail; assay type: in vivo, Setaria faberii
How it was run: as §1

wheat = assay: Test B pre/postemergence wheat; assay type: in vivo, Triticum aestivum
How it was run: as §1

purple nutsedge = assay: Test B pre/postemergence purple nutsedge; assay type: in vivo, Cyperus rotundus
How it was run: as §1

winter wheat [2] = assay: Test E winter wheat; assay type: in vivo, Triticum aestivum; details: Postemergence; for Wheat (winter) plant response rating: Rate 250 g/ha
How it was run: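 Each compound, carried in a non-phytotoxic solvent blend including surfactant, was applied (postemergence: over the top of young plants at 1- to 4-leaf stage). Plants stayed in the greenhouse about 21 to 28 days before visual comparison with untreated controls.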

blackgrass [3] = assay: Test E blackgrass; assay type: in vivo, Alopecurus myosuroides; details: Preemergence; for Blackgrass plant response rating (0 to 100 scale): Rate 250 g/ha
green foxtail = assay: Test E green foxtail; assay type: in vivo, Setaria viridis; details: Preemergence; for Green foxtail plant response rating (0 to 100 scale): Rate 250 g/ha
Italian ryegrass = assay: Test E Italian ryegrass; assay type: in vivo, Lolium multiflorum; details: Preemergence; for I. Ryegrass plant response rating (0 to 100 scale): Rate 250 g/ha
winter wheat [4] = assay: Test E winter wheat; assay type: in vivo, Triticum aestivum; details: Preemergence; for Wheat (winter) plant response rating (0 to 100 scale): Rate 250 g/ha
wild oat = assay: Test E wild oat; assay type: in vivo, Avena fatua; details: Preemergence; for Wild oat plant response rating (0 to 100 scale): Rate 250 g/ha
winter barley = assay: Test E winter barley; assay type: in vivo, Hordeum vulgare; details: Preemergence; for Barley (winter) plant response rating (0 to 100 scale): Rate 250 g/ha
[5] = Postemergence, Rate 125 g/ha, scale of 0 to 10 where 0 is no effect and 10 is complete control
[6] = Preemergence, Rate 62 g/ha, scale 0 to 10 (0 no effect, 10 complete control)
[7] = Preemergence, Rate 125 g/ha, 0 is no effect, 10 is complete control
[8] = Preemergence, Rate 250 g/ha, scale 0 to 10, 0 is no effect, 10 is complete control
[9] = Preemergence, Rate 500 g/ha, scale 0 to 10 (0 no effect, 10 complete control)
[10] = Rate 62 g/ha, Postemergence, scale of 0 to 10 where 0 is no effect and 10 is complete control
[11] = Rate 250 g/ha, Postemergence, scale 0 to 10, 0 is no effect, 10 is complete control
[12] = Rate 500 g/ha, Postemergence, scale 0 to 10
[13] = 0 to 100 scale where 0 is no effect and 100 is complete control
[14] = Rate 500 g/ha, 0 to 100 scale where 0 is no effect and 100 is complete control
[15] = Rate 1000 g/ha, 0 to 100 scale where 0 is no effect and 100 is complete control
[16] = Preemergence, Rate 62 g/ha, scale of 0 to 10 where 0 is no effect and 10 is complete control
[17] = Preemergence, Rate 250 g/ha, scale of 0 to 10 where 0 is no effect and 10 is complete control
[18] = Preemergence, Rate 500 g/ha, scale of 0 to 10 where 0 is no effect and 10 is complete control
[19] = Rate 62 g/ha, Postemergence, scale 0 to 10 (0 no effect, 10 complete control)
[20] = Rate 125 g/ha, Postemergence, scale of 0 to 10 where 0 is no effect and 10 is complete control
[21] = Rate 125 g/ha, Preemergence, scale of 0 to 10 where 0 is no effect and 10 is complete control
[22] = Rate 250 g/ha, Postemergence, scale of 0 to 10 where 0 is no effect and 10 is complete control
[23] = Rate 500 g/ha, Postemergence, scale 0 to 10, 0 no effect, 10 complete control
[24] = Rate 500 g/ha, 0 to 100 scale (0 no effect, 100 complete control)
[25] = Rate 1000 g/ha, 0 to 100 scale, 0 no effect, 100 complete control

SMILES: Cc1nsc(C)c1-n1c(=O)on(C(=O)N(c2ccc(F)cc2)C(C)C)c1=O [Compound 157]
- Blackgrass plant response rating (blackgrass [1]; [5]): 0
- Blackgrass plant response rating (blackgrass [1]; [6]): 0
- Blackgrass plant response rating (0 to 10 scale) (blackgrass [1]; [7]): 0
- Blackgrass plant response rating (blackgrass [1]; [8]): 5
- Blackgrass plant response rating (blackgrass [1]; [9]): 5
- Blackgrass plant response rating (blackgrass [1]; [10]): 0
- Plant response rating, Blackgrass (blackgrass [1]; [11]): 0
- Blackgrass plant response rating (blackgrass [1]; [12]): 2
- Giant foxtail plant response rating (giant foxtail; [5]): 1
- Giant foxtail plant response rating (giant foxtail; [6]): 3
- Giant foxtail plant response rating (0 to 10 scale) (giant foxtail; [7]): 6
- Giant foxtail plant response rating (giant foxtail; [8]): 8
- Giant foxtail plant response rating (giant foxtail; [9]): 10
- Giant foxtail plant response rating (giant foxtail; [10]): 0
- Plant response rating, Giant foxtail (giant foxtail; [11]): 4
- Giant foxtail plant response rating (giant foxtail; [12]): 4
- Wheat plant response rating (wheat; [6]): 0
- Wheat plant response rating (0 to 10 scale) (wheat; [7]): 0
- Wheat plant response rating (wheat; [8]): 0
- Wheat plant response rating (wheat; [9]): 0
- Plant response rating, Wheat (wheat; [11]): 0
- Wheat plant response rating (wheat; [12]): 0
- Nutsedge plant response rating (purple nutsedge; [5]): 0
- Nutsedge plant response rating (purple nutsedge; [6]): 0
- Nutsedge plant response rating (0 to 10 scale) (purple nutsedge; [7]): 0
- Nutsedge plant response rating (purple nutsedge; [8]): 0
- Nutsedge plant response rating (purple nutsedge; [9]): 0
- Nutsedge plant response rating (purple nutsedge; [10]): 0
- Plant response rating, Nutsedge (purple nutsedge; [11]): 0
- Nutsedge plant response rating (purple nutsedge; [12]): 0
- Plant response rating, Wheat (winter) (winter wheat [2]; Rate 1000 g/ha, 0 to 100 scale, 0 is no effect and 100 is complete control): 40
- Plant response rating, Wheat (winter) (winter wheat [2]; Rate 500 g/ha, 0 to 100 scale, 0 no effect, 100 complete control): 30
- Wheat (winter) plant response rating (winter wheat [2]; [13]): 20
- Blackgrass plant response rating (0 to 100 scale) (blackgrass [3]): 20
- Plant response rating, Blackgrass (blackgrass [3]; [14]): 40
- Plant response rating, Blackgrass (blackgrass [3]; [15]): 50
- Green foxtail plant response rating (0 to 100 scale) (green foxtail): 30
- Plant response rating, Green foxtail (green foxtail; [14]): 40
- Plant response rating, Green foxtail (green foxtail; [15]): 50
- I. Ryegrass plant response rating (0 to 100 scale) (Italian ryegrass): 20
- Plant response rating, I. Ryegrass (Italian ryegrass; [14]): 30
- Plant response rating, I. Ryegrass (Italian ryegrass; [15]): 50
- Wheat (winter) plant response rating (0 to 100 scale) (winter wheat [4]): 20
- Plant response rating, Wheat (winter) (winter wheat [4]; [14]): 30
- Plant response rating, Wheat (winter) (winter wheat [4]; [15]): 40
- Wild oat plant response rating (0 to 100 scale) (wild oat): 50
- Plant response rating, Wild oat (wild oat; [14]): 30
- Plant response rating, Wild oat (wild oat; [15]): 50
- Barley (winter) plant response rating (0 to 100 scale) (winter barley): 0
- Plant response rating, Barley (winter) (winter barley; [14]): 10
- Plant response rating, Barley (winter) (winter barley; [15]): 30

SMILES: CC(C)N(C(=O)n1oc(=O)n(C2CCCC2)c1=O)c1ccccc1 [Compound 283]
- Blackgrass plant response rating (blackgrass [1]; [16]): 7
- Blackgrass plant response rating (blackgrass [1]; [17]): 9
- Plant response rating, Blackgrass (blackgrass [1]; [18]): 10
- Blackgrass plant response rating (blackgrass [1]; [19]): 2
- Blackgrass plant response rating (blackgrass [1]; [20]): 6
- Blackgrass plant response rating (blackgrass [1]; [21]): 8
- Plant response rating, Blackgrass (blackgrass [1]; [22]): 7
- Blackgrass plant response rating (blackgrass [1]; [23]): 7
- Giant foxtail plant response rating (giant foxtail; [16]): 8
- Giant foxtail plant response rating (giant foxtail; [17]): 10
- Plant response rating, Giant foxtail (giant foxtail; [18]): 10
- Giant foxtail plant response rating (giant foxtail; [19]): 0
- Giant foxtail plant response rating (giant foxtail; [20]): 3
- Giant foxtail plant response rating (giant foxtail; [21]): 9
- Plant response rating, Giant foxtail (giant foxtail; [22]): 4
- Giant foxtail plant response rating (giant foxtail; [23]): 7
- Wheat plant response rating (wheat; [16]): 0
- Wheat plant response rating (wheat; [17]): 1
- Plant response rating, Wheat (wheat; [18]): 6
- Wheat plant response rating (wheat; [19]): 0
- Wheat plant response rating (wheat; [20]): 0
- Wheat plant response rating (wheat; [21]): 0
- Plant response rating, Wheat (wheat; [22]): 0
- Wheat plant response rating (wheat; [23]): 0
- Nutsedge plant response rating (purple nutsedge; [16]): 0
- Nutsedge plant response rating (purple nutsedge; [17]): 0
- Plant response rating, Nutsedge (purple nutsedge; [18]): 0
- Nutsedge plant response rating (purple nutsedge; [19]): 0
- Nutsedge plant response rating (purple nutsedge; [20]): 0
- Nutsedge plant response rating (purple nutsedge; [21]): 0
- Plant response rating, Nutsedge (purple nutsedge; [22]): 0
- Nutsedge plant response rating (purple nutsedge; [23]): 0
- Plant response rating, Wheat (winter) (winter wheat [2]; [15]): 75
- Wheat (winter) plant response rating (winter wheat [2]; [13]): 60
- Plant response rating, Wheat (winter) (winter wheat [2]; Rate 500 g/ha, 0 to 100 scale, 0 is no effect, 100 is complete control): 50
- Blackgrass plant response rating (0 to 100 scale) (blackgrass [3]): 50
- Plant response rating, Blackgrass (blackgrass [3]; [24]): 60
- Plant response rating, Blackgrass (blackgrass [3]; [25]): 85
- Green foxtail plant response rating (0 to 100 scale) (green foxtail): 100
- Plant response rating, Green foxtail (green foxtail; [24]): 100
- Plant response rating, Green foxtail (green foxtail; [25]): 100
- I. Ryegrass plant response rating (0 to 100 scale) (Italian ryegrass): 70
- Plant response rating, I. Ryegrass (Italian ryegrass; [24]): 90
- Plant response rating, I. Ryegrass (Italian ryegrass; [25]): 98
- Wheat (winter) plant response rating (0 to 100 scale) (winter wheat [4]): 50
- Plant response rating, Wheat (winter) (winter wheat [4]; [24]): 65
- Plant response rating, Wheat (winter) (winter wheat [4]; [25]): 80
- Wild oat plant response rating (0 to 100 scale) (wild oat): 65
- Plant response rating, Wild oat (wild oat; [24]): 50
- Plant response rating, Wild oat (wild oat; [25]): 70
- Barley (winter) plant response rating (0 to 100 scale) (winter barley): 60
- Plant response rating, Barley (winter) (winter barley; [24]): 75
- Plant response rating, Barley (winter) (winter barley; [25]): 80
